In one test the test system is Aspergillus niger. As to the kind of experiment: Antifungal activity against Aspergillus niger after 24 hrs. Type of test: functional.
The test system of the next test is KB. As to the kind of experiment: Cytotoxicity against human KB cells after 72 hrs by spectrophotometric method. The class given is functional, cell-based.

Results on 4 compounds are retold here after ChEMBL document CHEMBL1150816, “Bioactive constituents of the roots of Licania intrapetiolaris” (J Nat Prod, 2001).

The structures appear in SMILES notation. ≈ marks a conversion by molar mass, not a printed value. Calls of active or inactive are those of the source. No cut-off for these calls is given here.

With `C[C@@H]1[C@H](O)[C@@H](C)/C=C/C=C/C=C/C=C/C=C/C=C/C=C/[C@H](O[C@@H]2O[C@H](C)[C@@H](O)[C@H](N)[C@@H]2O)C[C@@H]2O[C@](O)(C[C@@H](O)C[C@@H](O)[C@H](O)CC[C@@H](O)C[C@@H](O)CC(=O)O[C@H]1C)C[C@H](O)[C@H]2C(=O)O` [AMPHOTERICIN B], the “inhibition zone (IZ)” value with Aspergillus niger came to 18 mm. The compound `CC(=O)OC(C)(C)/C=C/C(=O)[C@](C)(O)[C@H]1[C@H](O)C[C@@]2(C)[C@@H]3CC=C4[C@H](C[C@H](O)C(=O)C4(C)C)[C@]3(C)C(=O)C[C@]12C` [CUCURBITACIN B] displayed an EC50 in the test with KB of 0.008 µg/mL (≈ 0.0143 µM).

As to `C=CC(=C)CC[C@]1(C)[C@H](C)C[C@H](O)[C@@]23C(=C[C@@H](OC(=O)c4ccc(O)cc4)C[C@@H]12)[C@@H](OC)O[C@H]3OC(C)=O` [INTRAPETACIN A], in the test on KB, the EC50 stood at 2 µg/mL (≈ 3.8 µM). The “inhibition zone (IZ)” value in the test with Aspergillus niger is “inactive”. The corresponding values for `C=CC(=C)CC[C@]1(C)[C@H](C)C[C@H](O)[C@@]23C(=C[C@@H](OC(=O)c4ccc(O)cc4)C[C@@H]12)[C@@H](OC(C)=O)O[C@H]3OC(C)=O` [INTRAPETACIN B] are 0.8 µg/mL (≈ 1.44 µM) and 21 mm.
